How the values were obtained:
Conditions in all cases: Compound concentration 1.0 uM
[1] = target: Cyclin-dependent kinase-like 1 (Homo sapiens) (UniProt Q00532)
[2] = target: Tyrosine-protein kinase HCK (Homo sapiens) (UniProt P08631)
[3] = target: Tyrosine-protein kinase JAK2 (Homo sapiens) (UniProt O60674)
[4] = target: T1, Tyrosine-protein kinase Mer (Homo sapiens) (UniProt Q12866)
T1 sequence (whole entry): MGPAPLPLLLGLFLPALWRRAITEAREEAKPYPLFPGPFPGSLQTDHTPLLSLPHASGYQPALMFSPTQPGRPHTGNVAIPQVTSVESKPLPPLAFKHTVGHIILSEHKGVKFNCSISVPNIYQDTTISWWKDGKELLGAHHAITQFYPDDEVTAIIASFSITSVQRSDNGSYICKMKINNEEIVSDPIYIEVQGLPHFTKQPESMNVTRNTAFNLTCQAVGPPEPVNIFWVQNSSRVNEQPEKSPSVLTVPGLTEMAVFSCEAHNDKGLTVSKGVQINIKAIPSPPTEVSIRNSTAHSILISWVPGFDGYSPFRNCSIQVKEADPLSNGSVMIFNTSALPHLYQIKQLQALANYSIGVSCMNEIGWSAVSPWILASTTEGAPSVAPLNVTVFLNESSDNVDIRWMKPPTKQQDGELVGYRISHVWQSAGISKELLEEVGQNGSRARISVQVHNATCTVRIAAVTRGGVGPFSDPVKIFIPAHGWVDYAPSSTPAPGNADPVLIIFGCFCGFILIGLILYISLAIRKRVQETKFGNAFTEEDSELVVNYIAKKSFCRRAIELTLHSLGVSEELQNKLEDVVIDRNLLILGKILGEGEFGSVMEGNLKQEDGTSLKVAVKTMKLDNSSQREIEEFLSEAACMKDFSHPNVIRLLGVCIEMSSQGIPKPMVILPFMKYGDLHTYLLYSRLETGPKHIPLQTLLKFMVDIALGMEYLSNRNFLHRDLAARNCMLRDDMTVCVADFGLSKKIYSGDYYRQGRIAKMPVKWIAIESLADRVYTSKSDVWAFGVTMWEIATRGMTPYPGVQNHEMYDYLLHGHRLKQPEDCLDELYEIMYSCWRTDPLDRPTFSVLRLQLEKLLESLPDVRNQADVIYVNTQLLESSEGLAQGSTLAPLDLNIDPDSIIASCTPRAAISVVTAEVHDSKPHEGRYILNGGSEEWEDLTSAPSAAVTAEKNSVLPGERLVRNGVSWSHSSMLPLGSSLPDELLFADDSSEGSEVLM

[5] = target: Hepatocyte growth factor receptor (Homo sapiens) (UniProt P08581)
[6] = target: T2, Muscle, skeletal receptor tyrosine-protein kinase (Homo sapiens) (UniProt O15146)
T2 sequence (whole entry): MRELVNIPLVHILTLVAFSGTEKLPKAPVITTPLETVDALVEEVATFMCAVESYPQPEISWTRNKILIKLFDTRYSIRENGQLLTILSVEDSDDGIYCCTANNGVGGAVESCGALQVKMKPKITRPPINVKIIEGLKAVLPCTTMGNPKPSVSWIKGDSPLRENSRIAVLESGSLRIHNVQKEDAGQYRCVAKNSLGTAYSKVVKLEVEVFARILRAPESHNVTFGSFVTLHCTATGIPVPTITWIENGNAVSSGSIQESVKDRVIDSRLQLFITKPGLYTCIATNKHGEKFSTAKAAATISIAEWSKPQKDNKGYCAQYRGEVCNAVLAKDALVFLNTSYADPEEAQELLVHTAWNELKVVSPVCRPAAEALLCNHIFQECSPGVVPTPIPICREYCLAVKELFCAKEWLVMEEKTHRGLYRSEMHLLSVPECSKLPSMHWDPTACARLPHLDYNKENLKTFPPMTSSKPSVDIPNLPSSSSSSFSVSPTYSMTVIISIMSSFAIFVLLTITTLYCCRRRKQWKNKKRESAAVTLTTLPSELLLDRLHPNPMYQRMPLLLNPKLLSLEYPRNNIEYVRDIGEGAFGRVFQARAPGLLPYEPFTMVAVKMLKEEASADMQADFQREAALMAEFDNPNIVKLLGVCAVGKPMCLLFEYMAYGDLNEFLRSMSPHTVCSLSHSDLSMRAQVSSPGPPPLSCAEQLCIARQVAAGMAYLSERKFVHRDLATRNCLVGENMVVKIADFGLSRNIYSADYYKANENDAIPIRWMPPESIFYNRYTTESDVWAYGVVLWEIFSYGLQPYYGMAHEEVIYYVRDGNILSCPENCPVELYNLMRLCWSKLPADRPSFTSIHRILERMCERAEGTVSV

[7] = target: T3, Serine/threonine-protein kinase TAO1 (Homo sapiens) (UniProt Q7L7X3)
T3 sequence (whole entry): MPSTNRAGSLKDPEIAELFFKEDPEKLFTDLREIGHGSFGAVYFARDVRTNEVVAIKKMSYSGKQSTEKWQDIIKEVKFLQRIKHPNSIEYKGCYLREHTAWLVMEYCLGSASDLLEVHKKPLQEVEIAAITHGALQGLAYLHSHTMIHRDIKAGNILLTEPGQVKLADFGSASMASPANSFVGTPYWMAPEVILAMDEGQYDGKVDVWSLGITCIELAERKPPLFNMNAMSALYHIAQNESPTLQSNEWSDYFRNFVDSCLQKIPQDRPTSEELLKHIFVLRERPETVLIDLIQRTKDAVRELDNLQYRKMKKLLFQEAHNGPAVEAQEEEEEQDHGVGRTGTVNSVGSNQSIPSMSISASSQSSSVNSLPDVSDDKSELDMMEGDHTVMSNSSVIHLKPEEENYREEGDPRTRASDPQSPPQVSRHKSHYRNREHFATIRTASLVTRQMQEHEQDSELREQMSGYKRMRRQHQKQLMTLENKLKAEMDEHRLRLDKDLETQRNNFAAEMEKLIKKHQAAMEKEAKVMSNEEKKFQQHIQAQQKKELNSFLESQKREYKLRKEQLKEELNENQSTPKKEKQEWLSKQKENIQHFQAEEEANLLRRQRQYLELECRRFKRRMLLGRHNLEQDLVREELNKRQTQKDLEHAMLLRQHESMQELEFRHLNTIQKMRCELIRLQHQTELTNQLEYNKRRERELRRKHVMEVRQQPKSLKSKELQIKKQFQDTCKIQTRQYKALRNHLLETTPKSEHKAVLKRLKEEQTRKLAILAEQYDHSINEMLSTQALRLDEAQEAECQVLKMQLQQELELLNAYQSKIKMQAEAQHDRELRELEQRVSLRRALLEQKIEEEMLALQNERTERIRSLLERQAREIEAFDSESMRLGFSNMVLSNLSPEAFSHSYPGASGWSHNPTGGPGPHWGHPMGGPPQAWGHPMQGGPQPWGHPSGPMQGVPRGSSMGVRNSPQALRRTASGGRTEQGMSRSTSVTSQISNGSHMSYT

Measured: % residual kinase activity

Tyrosine-protein kinase HCK (Homo sapiens), sequence (P08631 2-526 limits assumed): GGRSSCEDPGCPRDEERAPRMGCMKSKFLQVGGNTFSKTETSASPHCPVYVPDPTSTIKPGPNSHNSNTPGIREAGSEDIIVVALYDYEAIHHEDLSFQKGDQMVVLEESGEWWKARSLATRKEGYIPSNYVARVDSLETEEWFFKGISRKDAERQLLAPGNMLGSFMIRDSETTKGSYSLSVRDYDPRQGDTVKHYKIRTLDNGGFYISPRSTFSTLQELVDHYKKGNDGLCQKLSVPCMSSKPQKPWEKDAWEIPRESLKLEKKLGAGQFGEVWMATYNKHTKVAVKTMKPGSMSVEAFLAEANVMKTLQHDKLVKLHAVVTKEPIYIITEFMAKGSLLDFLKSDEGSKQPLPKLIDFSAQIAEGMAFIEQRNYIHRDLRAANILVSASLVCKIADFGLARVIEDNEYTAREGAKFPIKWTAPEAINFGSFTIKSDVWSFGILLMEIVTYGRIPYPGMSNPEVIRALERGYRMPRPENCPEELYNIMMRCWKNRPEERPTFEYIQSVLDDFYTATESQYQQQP
Cyclin-dependent kinase-like 1 (Homo sapiens), sequence (Q00532 whole entry): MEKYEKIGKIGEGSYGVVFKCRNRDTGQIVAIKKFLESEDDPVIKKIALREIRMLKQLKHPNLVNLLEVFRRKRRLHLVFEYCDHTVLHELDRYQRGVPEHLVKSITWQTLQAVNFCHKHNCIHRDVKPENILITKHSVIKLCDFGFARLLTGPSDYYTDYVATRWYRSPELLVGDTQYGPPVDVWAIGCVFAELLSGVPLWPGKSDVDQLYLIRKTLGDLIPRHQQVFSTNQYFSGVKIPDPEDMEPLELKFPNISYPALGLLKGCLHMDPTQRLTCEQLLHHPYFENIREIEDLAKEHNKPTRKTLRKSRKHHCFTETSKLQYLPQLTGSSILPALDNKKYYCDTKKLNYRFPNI
Hepatocyte growth factor receptor (Homo sapiens), sequence (P08581 whole entry): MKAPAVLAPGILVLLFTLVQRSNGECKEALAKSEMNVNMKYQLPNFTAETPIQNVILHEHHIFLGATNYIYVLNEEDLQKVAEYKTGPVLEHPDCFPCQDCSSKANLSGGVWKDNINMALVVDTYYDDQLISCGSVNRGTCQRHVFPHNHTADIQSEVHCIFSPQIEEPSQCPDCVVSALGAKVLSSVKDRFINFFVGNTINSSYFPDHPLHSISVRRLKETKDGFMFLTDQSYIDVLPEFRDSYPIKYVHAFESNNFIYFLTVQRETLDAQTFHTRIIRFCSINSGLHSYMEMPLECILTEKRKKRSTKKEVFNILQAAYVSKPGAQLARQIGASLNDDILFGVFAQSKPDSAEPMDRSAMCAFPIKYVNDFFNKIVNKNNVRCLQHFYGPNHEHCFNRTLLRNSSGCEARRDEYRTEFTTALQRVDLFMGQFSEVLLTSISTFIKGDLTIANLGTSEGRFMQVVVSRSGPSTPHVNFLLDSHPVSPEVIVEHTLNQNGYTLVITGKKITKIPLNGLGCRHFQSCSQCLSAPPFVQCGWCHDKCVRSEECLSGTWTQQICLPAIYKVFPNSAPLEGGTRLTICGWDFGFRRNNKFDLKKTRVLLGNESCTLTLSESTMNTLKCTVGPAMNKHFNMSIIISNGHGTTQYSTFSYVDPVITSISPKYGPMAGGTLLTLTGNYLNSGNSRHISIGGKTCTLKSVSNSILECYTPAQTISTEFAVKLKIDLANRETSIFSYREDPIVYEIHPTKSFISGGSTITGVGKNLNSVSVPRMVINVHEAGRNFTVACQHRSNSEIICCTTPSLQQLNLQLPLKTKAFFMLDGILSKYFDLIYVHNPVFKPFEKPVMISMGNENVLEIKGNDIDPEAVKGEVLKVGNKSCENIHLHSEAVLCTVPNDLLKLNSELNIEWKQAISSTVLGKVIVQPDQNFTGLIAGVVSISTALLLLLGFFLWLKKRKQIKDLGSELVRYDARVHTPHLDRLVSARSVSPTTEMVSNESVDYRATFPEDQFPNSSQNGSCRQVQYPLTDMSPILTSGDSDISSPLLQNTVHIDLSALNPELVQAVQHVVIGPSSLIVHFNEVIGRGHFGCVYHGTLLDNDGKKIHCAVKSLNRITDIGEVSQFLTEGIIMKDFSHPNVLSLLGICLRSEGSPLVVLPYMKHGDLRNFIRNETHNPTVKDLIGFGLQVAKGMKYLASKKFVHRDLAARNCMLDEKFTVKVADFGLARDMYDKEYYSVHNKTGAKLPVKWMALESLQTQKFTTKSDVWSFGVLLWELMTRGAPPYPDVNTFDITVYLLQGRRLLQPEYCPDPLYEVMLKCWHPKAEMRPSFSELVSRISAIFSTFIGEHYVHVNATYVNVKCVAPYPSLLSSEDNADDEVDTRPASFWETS
Tyrosine-protein kinase JAK2 (Homo sapiens), sequence (O60674 whole entry): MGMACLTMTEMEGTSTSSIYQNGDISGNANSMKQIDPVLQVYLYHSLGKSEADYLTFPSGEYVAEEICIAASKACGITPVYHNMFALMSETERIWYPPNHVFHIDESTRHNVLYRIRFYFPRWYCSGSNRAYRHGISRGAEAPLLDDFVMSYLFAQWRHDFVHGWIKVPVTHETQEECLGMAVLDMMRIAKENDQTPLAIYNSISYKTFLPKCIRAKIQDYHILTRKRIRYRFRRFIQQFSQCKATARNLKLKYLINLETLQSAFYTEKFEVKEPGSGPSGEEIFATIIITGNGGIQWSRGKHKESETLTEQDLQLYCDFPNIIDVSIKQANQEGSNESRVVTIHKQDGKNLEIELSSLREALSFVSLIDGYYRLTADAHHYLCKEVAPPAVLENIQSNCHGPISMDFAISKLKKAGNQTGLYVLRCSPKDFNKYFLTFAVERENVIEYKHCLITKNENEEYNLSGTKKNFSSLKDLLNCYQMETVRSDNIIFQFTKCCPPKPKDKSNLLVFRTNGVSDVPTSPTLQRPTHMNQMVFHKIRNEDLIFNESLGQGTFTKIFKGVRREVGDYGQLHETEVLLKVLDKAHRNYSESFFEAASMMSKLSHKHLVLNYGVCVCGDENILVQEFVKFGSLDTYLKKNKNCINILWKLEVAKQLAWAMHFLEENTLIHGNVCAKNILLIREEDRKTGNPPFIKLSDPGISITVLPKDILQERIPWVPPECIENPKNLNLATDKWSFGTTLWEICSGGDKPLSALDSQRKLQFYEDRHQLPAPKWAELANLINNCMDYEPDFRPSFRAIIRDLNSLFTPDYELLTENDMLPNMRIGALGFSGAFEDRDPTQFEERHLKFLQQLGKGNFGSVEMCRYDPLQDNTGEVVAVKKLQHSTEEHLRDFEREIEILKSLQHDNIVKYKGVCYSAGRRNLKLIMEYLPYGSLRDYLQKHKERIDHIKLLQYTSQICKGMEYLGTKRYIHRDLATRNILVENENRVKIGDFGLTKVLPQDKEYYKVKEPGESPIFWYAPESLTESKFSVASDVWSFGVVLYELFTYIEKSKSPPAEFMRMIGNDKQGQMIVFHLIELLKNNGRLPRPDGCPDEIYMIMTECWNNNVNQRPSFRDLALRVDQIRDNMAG

CN1CCN(c2cnc3c(C4CCN(C(=O)c5ccc(OC(F)(F)F)cc5N)CC4)ncnc3c2)CC1 [BAY-885]
inactive: [1] 115% | [2] 95% | [3] 100% | [4] 91% | [5] 93% | [6] 130% | [7] 100%

From ChEMBL document CHEMBL4507268 (2021)
